Results taken from the supplement of paper PMC9663587.

Columns and labels:
Assay in all cases: area over the GR curve, 72 h; higher = more effect;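 note: Dye Drop or Deep Dye Drop imaging of viable cells in 384-well plates (Hoechst nuclei, LIVE/DEAD dye), nine half-log doses, GR normalized to DMSO controls and time-zero plates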
HCC1937 = test system: HCC1937
CAL851 = test system: CAL851
HCC1143 = test system: HCC1143
PDX1328 = test system: PDX1328
EVSAT = test system: EVSAT
EFM19 = test system: EFM19
BT549 = test system: BT549
SUM190PT = test system: SUM190PT
184A1 = test system: 184A1
MDAMB436 = test system: MDAMB436
MDAMB468 = test system: MDAMB468
SUM159 = test system: SUM159

SMILES	area over the GR curve (HCC1937) [GR]	area over the GR curve (CAL851) [GR]	area over the GR curve (HCC1143) [GR]	area over the GR curve (PDX1328) [GR]	area over the GR curve (EVSAT) [GR]	area over the GR curve (EFM19) [GR]	area over the GR curve (BT549) [GR]	area over the GR curve (SUM190PT) [GR]	area over the GR curve (184A1) [GR]	area over the GR curve (MDAMB436) [GR]	area over the GR curve (MDAMB468) [GR]	area over the GR curve (SUM159) [GR]	area over the GR curve (HCC1937; main component drawn) [GR]	area over the GR curve (CAL851; main component drawn) [GR]	area over the GR curve (HCC1143; main component drawn) [GR]	area over the GR curve (PDX1328; main component drawn) [GR]	area over the GR curve (BT549; main component drawn) [GR]	area over the GR curve (MDAMB436; main component drawn) [GR]	area over the GR curve (MDAMB468; main component drawn) [GR]	area over the GR curve (SUM159; main component drawn) [GR]
C[C@@H]1COCCN1c1cc(C2([S@](C)(=N)=O)CC2)nc(-c2cc[nH]c3nccc2-3)n1 [AZD6738] (max 10 µM)	-0.0947	0.071	0.0282	0.172	-0.0225	0.0109	0.0821	0.124	-0.0342	0.0381	0.0381	0.0107	–	–	–	–	–	–	–	–
NC(=O)Nc1cc(-c2cccc(F)c2)sc1C(=O)N[C@H]1CCCNC1 [AZD7762] (max 10 µM)	0.447	0.648	0.621	0.828	0.253	0.222	0.601	0.57	-0.0013	0.65	0.487	0.277	–	–	–	–	–	–	–	–
Cc1nc(NC(=O)N2CCC[C@H]2C(N)=O)sc1-c1ccnc(C(C)(C)C(F)(F)F)c1 [Alpelisib/BYL719] (max 10 µM)	0.0501	0.194	0.174	0.241	0.0161	0.445	0.0322	-0.103	0.136	0.0552	0.0301	0.056	–	–	–	–	–	–	–	–
CN(C)C/C=C/C(=O)Nc1ccc(O[C@@H]2CCC[C@@H](Nc3ncc(Cl)c(-c4c[nH]c5ccccc45)n3)C2)cc1 [BSJ-01-175] (max 10 µM)	0.462	0.822	0.684	0.898	0.637	0.3	0.433	1.16	1.15	0.82	0.892	0.646	–	–	–	–	–	–	–	–
CC(=O)c1c(C)c2cnc(Nc3ccc(N4CCN(CCOCCOCCOCCNC(=O)COc5cccc6c5C(=O)N(C5CCC(=O)NC5=O)C6=O)CC4)cn3)nc2n(C2CCCC2)c1=O (stereo not drawn) [BSJ-03-123] (max 10 µM)	0.0357	0.405	0.265	0.31	0.194	0.318	0.116	0.568	0.708	0.0446	0.265	0.265	–	–	–	–	–	–	–	–
CC(C)Nc1cc(-c2c[nH]c(C(=O)N[C@H](CO)c3cccc(Cl)c3)c2)c(Cl)cn1 [BVD523] (max 10 µM)	0.119	0.2	0.27	0.102	0.0496	0.0226	0.109	0.218	0.704	0.0948	0.267	0.254	–	–	–	–	–	–	–	–
Cc1c(N)nc([C@H](CC(N)=O)NC[C@H](N)C(N)=O)nc1C(=O)N[C@H](C(=O)N[C@H](C)[C@@H](O)[C@H](C)C(=O)N[C@H](C(=O)NCCc1nc(-c2nc(C(=O)NCCC[S+](C)C)cs2)cs1)[C@@H](C)O)[C@@H](OC1OC(CO)C(O)C(O)C1OC1OC(CO)C(O)C(OC(N)=O)C1O)c1cnc[nH]1 (stereo partly drawn) [Bleomycin] (max 10 µM)	–	–	–	–	–	–	–	–	–	–	–	–	0.416	0.385	0.658	0.199	0.467	0.309	0.325	0.463
Nc1cc(C(F)(F)F)c(-c2cc(N3CCOCC3)nc(N3CCOCC3)n2)cn1 [Buparlisib/NVP-BKM120] (max 10 µM)	0.263	0.442	0.392	0.395	0.322	0.323	0.248	0.253	0.268	0.292	0.357	0.184	–	–	–	–	–	–	–	–
COc1cc2nccc(Oc3ccc(NC(=O)C4(C(=O)Nc5ccc(F)cc5)CC4)cc3)c2cc1OC [Cabozantinib] (max 10 µM)	0.0053	0.123	0.102	0.0918	0.0366	-0.0111	0.0035	0.138	0.0128	0.0531	0.0415	0.059	–	–	–	–	–	–	–	–
COc1cc2c(Oc3ccc4[nH]c(C)cc4c3F)ncnc2cc1OCCCN1CCCC1 [Cediranib/AZD2171] (max 10 µM)	0.044	0.179	0.165	0.162	0.064	0.0327	0.15	-0.0464	0.0594	0.161	0.165	0.0309	–	–	–	–	–	–	–	–
Cc1cc(Nc2ncc(Cl)c(Nc3ccccc3S(=O)(=O)C(C)C)n2)c(OC(C)C)cc1C1CCNCC1 [Ceritinib/LDK378] (max 10 µM)	0.133	0.372	0.285	0.416	0.0642	0.0971	0.141	0.242	0.347	0.415	0.405	0.213	–	–	–	–	–	–	–	–
N.N.[Cl][Pt][Cl] [Cisplatin] (max 10 µM)	0.327	0.221	0.303	0.287	–	–	0.283	–	–	0.36	0.287	0.137	–	–	–	–	–	–	–	–
Cc1nc(Nc2ncc(C(=O)Nc3c(C)cccc3Cl)s2)cc(N2CCN(CCO)CC2)n1 [Dasatinib] (max 10 µM)	0.442	0.57	0.447	0.819	0.379	0.685	0.237	0.32	0.264	0.102	0.143	0.0885	–	–	–	–	–	–	–	–
COc1cccc2c1C(=O)c1c(O)c3c(c(O)c1C2=O)C[C@@](O)(C(=O)CO)C[C@@H]3O[C@H]1C[C@H](N)[C@H](O)[C@H](C)O1 [Doxorubicin] (max 3.162 µM)	0.579	0.848	0.718	0.637	0.642	0.448	0.76	0.403	0.706	0.706	0.912	0.624	–	–	–	–	–	–	–	–
COc1cc([C@@H]2c3cc4c(cc3[C@@H](O[C@@H]3O[C@@H]5CO[C@@H](C)O[C@H]5[C@H](O)[C@H]3O)[C@H]3COC(=O)[C@H]23)OCO4)cc(OC)c1O [Etoposide] (max 10 µM)	0.393	0.406	0.384	0.35	–	–	0.473	–	–	0.434	0.429	0.413	–	–	–	–	–	–	–	–
CO[C@H]1C[C@@H]2CC[C@@H](C)[C@@](O)(O2)C(=O)C(=O)N2CCCC[C@H]2C(=O)O[C@H]([C@H](C)C[C@@H]2CC[C@@H](OCCO)[C@H](OC)C2)CC(=O)[C@H](C)/C=C(\C)[C@@H](O)[C@@H](OC)C(=O)[C@H](C)C[C@H](C)/C=C/C=C/C=C/1C [Everolimus] (max 10 µM)	0.335	0.576	0.343	0.642	0.551	0.731	0.439	0.571	0.452	0.314	0.429	0.108	–	–	–	–	–	–	–	–
CC[C@@]1(O)C(=O)OCc2c1cc1n(c2=O)Cc2cc3c(CN(C)C)c(O)ccc3nc2-1 [Topotecan] (max 10 µM)	0.837	0.843	0.904	1.07	–	–	0.851	–	–	0.877	1.07	0.864	–	–	–	–	–	–	–	–
